Molecular target: S1P1/EDG1 (Homo sapiens, UniProt P21453)
Assay: S1P1 CRE-bla CHOK1 reporter assay (inhibition of Forskolin induced cAMP)
Format: cell-based
Conditions: agonist activity range, Table 2; read-out: S1P1 ACTIVITY
From the text: A mammalian expression plasmid containing S1P1/EDG1 cloned into pcDNA3.1 was purchased from Missouri S&T cDNA Resource Centre. The nucleotide and amino acid sequence of human S1P1/EDG1 are published in Hla and Maciag (J Biol Chem, 265(1990), 9308-9313). S1P1/pcDNA3.1 was transfected into the CRE-bla CHO K1 (Invitrogen) cell line, and stable single cell clones were selected using standard techniques. Expression of functional SIP1/EDG1 receptor was confirmed by cell surface FACS with a S1P1 antibody (R&D Systems, clone 218713) and S1P-mediated inhibition of Forskolin induced cAMP.
Cells were seeded into 384-well black wall/clear bottom plates at 10^4 cells/well/19.5 μl assay media (DMEM-phenol free, 0.5% charcoal/dextran stripped serum, 2 mM glutamine, 0.1 mM NEAA, 1 mM Na-Pyruvate, 25 mM Hepes) and incubated for 18 hrs at 37° C. in 5% CO2. Dose response curves (10-point) were generated in 10 mM Hepes, 0.1% Pluronic F127, in the presence of Forskolin. Cells were treated with 0.5 μl compound in the presence of 2 μM Forskolin for 4 hrs at 37° C. The FRET-based β-lactamase fluorescent substrate (LiveBLAzer™ FRET B/G Loading Kit CC4-AM; Invitrogen) was prepared according to manufacturer's directions, and incubated with cells for 2 hrs at room temperature. Plates were read at Ex:410/Em:458 and Ex:410/Em:522, and the response ratio determined. Data was analyzed by non-linear regression to determine the EC50 for inhibition of Forskolin induced cAMP.

S1P1/EDG1, sequence (P21453 whole entry): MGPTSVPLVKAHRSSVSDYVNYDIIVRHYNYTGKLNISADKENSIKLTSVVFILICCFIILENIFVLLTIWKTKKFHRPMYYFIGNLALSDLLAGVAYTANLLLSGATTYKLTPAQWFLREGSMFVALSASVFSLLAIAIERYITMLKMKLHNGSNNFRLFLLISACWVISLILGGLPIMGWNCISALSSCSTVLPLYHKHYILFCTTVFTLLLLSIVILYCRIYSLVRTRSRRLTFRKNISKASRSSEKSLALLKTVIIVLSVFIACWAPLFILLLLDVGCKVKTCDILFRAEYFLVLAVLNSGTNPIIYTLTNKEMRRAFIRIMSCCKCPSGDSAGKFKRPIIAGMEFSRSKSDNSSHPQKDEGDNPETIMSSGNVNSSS

| SMILES | EC50 [nM] |
| --- | --- |
| CC(C)Oc1ccc(-c2ncc(-c3cccc4c3CC[C@@H]4NC(=O)CN)s2)cc1C#N [Compound 77] | 0.05 to 0.5 |
| CC(C)Oc1ccc(-c2ncc(-c3cccc4c3CC[C@@H]4NC(=O)CN)s2)cc1C#N [Compound 78] | 0.5 to 5 |
| CC(C)Oc1ccc(-c2ncc(-c3cccc4c3CC[C@@H]4NC(=O)[C@H](N)CO)s2)cc1C#N [Compound 79] | 0.05 to 0.5 |
| CC(C)Oc1ccc(-c2ncc(-c3cccc4c3CC[C@@H]4NC(=O)CN(C)C)s2)cc1C#N [Compound 81] | 0.5 to 5 |
| CC(C)Oc1ccc(-c2ncc(-c3cccc4c3CC[C@@H]4NC(=O)Cc3ccccc3)s2)cc1C#N [Compound 83] | > 5 |
| CC(C)Oc1ccc(-c2ncc(-c3cccc4c3CC[C@@H]4NC(=O)CN3CCCC3)s2)cc1C#N [Compound 85] | > 5 |
| CC(=O)N[C@H]1CCc2c(-c3cnc(-c4ccc(OC(C)C)c(C#N)c4)s3)cccc21 [Compound 87] | 0.05 to 0.5 |
| CC(=O)N[C@H]1CCc2c(-c3cnc(-c4ccc(OC(C)C)c(C#N)c4)s3)cccc21 [Compound 88] | 0.5 to 5 |
| COC(=O)N[C@H]1CCc2c(-c3cnc(-c4ccc(OC(C)C)c(C#N)c4)s3)cccc21 [Compound 89] | 0.5 to 5 |
| CC(C)Oc1ccc(-c2ncc(-c3cccc4c3CC[C@@H]4NCCO)s2)cc1C#N [Compound 92, (S)-5-(5-(1-((2-hydroxyethyl)amino)-2,3-dihydro-1H-inden-4-yl)thiazol-2-yl)-2-isopropoxybenzonitrile] | 0.5 to 5 |
| COCCN[C@H]1CCc2c(-c3cnc(-c4ccc(OC(C)C)c(C#N)c4)s3)cccc21 [Compound 93] | 0.5 to 5 |
| CC(C)Oc1ccc(-c2ncc(-c3cccc4c3CCC4N[C@H](C)CO)s2)cc1C#N (some centres unmarked) [Compound 95] | 0.5 to 5 |
| CC(C)Oc1ccc(-c2ncc(-c3cccc4c3CC[C@@H]4NCC(=O)O)s2)cc1C#N [Compound 97, (S)-2-((4-(2-(3-cyano-4-isopropoxyphenyl)thiazol-5-yl)-2,3-dihydro-1H-inden-1-yl)amino)acetic acid] | 0.05 to 0.5 |
| CC(C)Oc1ccc(-c2ncc(-c3cccc4c3CC[C@@H]4NCC(=O)N(C)C)s2)cc1C#N [Compound 98] | 0.5 to 5 |
| COC(=O)CN[C@H]1CCc2c(-c3cnc(-c4ccc(OC(C)C)c(C#N)c4)s3)cccc21 [Compound 99, (S)-methyl 2-((4-(2-(3-cyano-4-isopropoxyphenyl)thiazol-5-yl)-2,3-dihydro-1H-inden-1-yl)amino)acetate] | 0.5 to 5 |
| CC(C)Oc1ccc(-c2ncc(-c3cccc4c3CC[C@@H]4NCC(=O)N3CCCC3)s2)cc1C#N [Compound 100] | 0.05 to 0.5 |
| CC(C)Oc1ccc(-c2ncc(-c3cccc4c3CC[C@@H]4NCC(=O)N3CCCC3)s2)cc1C#N [Compound 101] | > 5 |
| CC(C)Oc1ccc(-c2ncc(-c3cccc4c3CC[C@@H]4NCC(=O)N3CC[C@H](O)C3)s2)cc1C#N [Compound 103] | 0.05 to 0.5 |
| CC(C)Oc1ccc(-c2ncc(-c3cccc4c3CC[C@@H]4NCC(=O)N3CC[C@H](O)C3)s2)cc1C#N [Compound 104, 5-(5-((S)-1-((2-((S)-3-hydroxypyrrolidin-1-yl)-2-oxoethyl)amino)-2,3-dihydro-1H-inden-4-yl)thiazol-2-yl)-2-isopropoxybenzonitrile] | 0.5 to 5 |
| CC(C)Oc1ccc(-c2ncc(-c3cccc4c3CC[C@@H]4NCC(=O)N3CC[C@H](O)C3)s2)cc1C#N [Compound 105] | > 5 |
| CC(C)Oc1ccc(-c2ncc(-c3cccc4c3CC[C@@H]4NCC(=O)N3CCC[C@H](O)C3)s2)cc1C#N [Compound 106] | > 5 |
| CC(C)Oc1ccc(-c2ncc(-c3cccc4c3CC[C@@H]4NCC(=O)N3CCNCC3)s2)cc1C#N [Compound 107] | 0.5 to 5 |

| SMILES | EC50 [nM] |
| --- | --- |
| CC(C)Oc1ccc(-c2ncc(-c3cccc4c3CC[C@@H]4NCC(=O)N3CCNCC3)s2)cc1C#N [Compound 108] | > 5 |
| CC(C)Oc1ccc(-c2ncc(-c3cccc4c3CC[C@@H]4NCc3ncc[nH]3)s2)cc1C#N [Compound 110, (S)-5-(5-(1-(((1H-imidazol-2-yl)methyl)amino)-2,3-dihydro-1H-inden-4-yl)thiazol-2-yl)-2-isopropoxybenzonitrile] | 0.5 to 5 |
| CC(C)Oc1ccc(-c2ncc(-c3cccc4c3CC[C@@H]4NS(C)(=O)=O)s2)cc1C#N [Compound 112, (S)-N-(4-(2-(3-cyano-4-isopropoxyphenyl)thiazol-5-yl)-2,3-dihydro-1H-inden-1-yl)methanesulfonamide] | 0.05 to 0.5 |
| CCS(=O)(=O)N[C@H]1CCc2c(-c3cnc(-c4ccc(OC(C)C)c(C#N)c4)s3)cccc21 [Compound 113] | 0.05 to 0.5 |
| COCCS(=O)(=O)N[C@H]1CCc2c(-c3cnc(-c4ccc(OC(C)C)c(C#N)c4)s3)cccc21 [Compound 115] | 0.05 to 0.5 |
| COCCS(=O)(=O)N[C@H]1CCc2c(-c3cnc(-c4ccc(OC(C)C)c(C#N)c4)s3)cccc21 [Compound 116] | 0.5 to 5 |
| CC(C)Oc1ccc(-c2ncc(-c3cccc4c3CC[C@@H]4NS(=O)(=O)C3CC3)s2)cc1C#N [Compound 117] | 0.05 to 0.5 |
| CC(C)Oc1ccc(-c2ncc(-c3cccc4c3CC[C@@H]4NS(=O)(=O)CCN3CCOCC3)s2)cc1C#N [Compound 121] | 0.5 to 5 |
| CC(C)Oc1ccc(-c2ncc(-c3cccc4c3CC[C@@H]4NS(=O)(=O)CCN(C)C)s2)cc1C#N [Compound 123] | 0.5 to 5 |
| CNCCS(=O)(=O)N[C@H]1CCc2c(-c3cnc(-c4ccc(OC(C)C)c(C#N)c4)s3)cccc21 [Compound 125] | 0.5 to 5 |
| CC(C)Oc1ccc(-c2ncc(-c3cccc4c3CC[C@@H]4NS(=O)(=O)CCN3CCC3)s2)cc1C#N [Compound 127] | 0.5 to 5 |
| CC(C)Oc1ccc(-c2ncc(-c3cccc4c3CC[C@@H]4NS(=O)(=O)CCN3CCC3)s2)cc1C#N [Compound 128] | > 5 |
| CC(C)Oc1ccc(-c2ncc(-c3cccc4c3CC[C@@H]4NS(=O)(=O)CCN3CCCC3)s2)cc1C#N [Compound 129] | > 5 |
| CC(C)Oc1ccc(-c2ncc(-c3cccc4c3CC[C@@H]4NS(=O)(=O)CCN3CCCC3)s2)cc1C#N [Compound 130] | 0.5 to 5 |
| CC(C)Oc1ccc(-c2ncc(-c3cccc4c3CC[C@@H]4NS(=O)(=O)CCN3CC[C@H](O)C3)s2)cc1C#N [Compound 131] | 0.5 to 5 |
| CC(C)Oc1ccc(-c2ncc(-c3cccc4c3CC[C@@H]4NS(=O)(=O)CCN3CC[C@H](N)C3)s2)cc1C#N [Compound 135] | > 5 |
| CC(C)Oc1ccc(-c2ncc(-c3cccc4c3CC[C@@H]4NS(=O)(=O)CCN3CC[C@H](N(C)C)C3)s2)cc1C#N [Compound 137] | > 5 |
| CC(C)Oc1ccc(-c2ncc(-c3cccc4c3CC[C@@H]4NS(=O)(=O)CCN3CC[C@@H](N(C)C)C3)s2)cc1C#N [Compound 138] | > 5 |
| CC(C)Oc1ccc(-c2ncc(-c3cccc4c3CC[C@@H]4NS(=O)(=O)CCN3CCCCC3)s2)cc1C#N [Compound 139] | > 5 |
| CC(C)Oc1ccc(-c2ncc(-c3cccc4c3CC[C@@H]4NS(=O)(=O)CCN3CCC[C@H](O)C3)s2)cc1C#N [Compound 142] | 0.5 to 5 |
| CC(C)Oc1ccc(-c2ncc(-c3cccc4c3CC[C@@H]4NS(=O)(=O)CCN3CCC[C@H](O)C3)s2)cc1C#N [Compound 144] | 0.5 to 5 |
| CC(C)Oc1ccc(-c2ncc(-c3cccc4c3CC[C@@H]4NS(=O)(=O)CCN3CCC(O)CC3)s2)cc1C#N [Compound 145] | > 5 |

Source: patent US8507538B2, “Selective heterocyclic sphingosine 1 phosphate receptor modulators” (Receptos, Inc., priority 2009, dated 2013)
